{
  "source": "patent US5158939A",
  "about": "“Method of stimulating the immune systems of animals and compositions useful therefor” (priority 1990, dated 1992)",
  "system": "endotoxin",
  "assay": "Protection of mice against lethal endotoxin challenge",
  "format": "in vivo",
  "conditions": "compared with lipid X as reported in the literature",
  "experimental": "The lethal dose of E. coli endotoxin was determined both for the intravenous and for the intraperitoneal challenge. […] (It is important to standardize each lot of endotoxin with each lot of mice.) To determine the approximate dose of lipid A derivative needed to protect against a lethal challenge of endotoxin, mice are pretreated with the lipid A derivative intraperitoneally 2 hours before challenge with 1500 μg of endotoxin, which is 3 times the LD100 dose. Pretreatment of mice with the lipid A derivative appeared to prolong the time to death.",
  "data": [
    {"smiles": "CCCCCCC=CCCCCCC(=O)OC(CCCCCCCCCCC)CC(=O)NC1C(OCC2OC(OP(=O)(O)O)C(NC(=O)CC(=O)CCCCCCCCCCC)C(OC(=O)CC(O)CCCCCCC)C2O)OC(CO)C(OP(=O)(O)O)C1OC(=O)CC(O)CCCCCCC", "note": "(stereo not shown) [DPLA]", "values": [
      {"measurement": "protection of mice against a lethal dose of endotoxin", "result": "more effective than lipid X"}
    ]}
  ]
}
